Results from US11185537B2, “3-(5-amino-1-oxoisoindolin-2-yl)piperidine-2,6-dione derivatives and uses thereof” (Novartis AG, priority 2018, dated 2021).
Structures can show the parent of a compound that is named as a salt.

Target: IKZF2 (Helios) (Homo sapiens (Human), UniProt Q96SW2+Q9UKS7)
Assay: Prolabel quantification of IKZF2 protein levels in 293GT cells

IKZF2 (Helios), sequence (Q9UKS7 whole entry): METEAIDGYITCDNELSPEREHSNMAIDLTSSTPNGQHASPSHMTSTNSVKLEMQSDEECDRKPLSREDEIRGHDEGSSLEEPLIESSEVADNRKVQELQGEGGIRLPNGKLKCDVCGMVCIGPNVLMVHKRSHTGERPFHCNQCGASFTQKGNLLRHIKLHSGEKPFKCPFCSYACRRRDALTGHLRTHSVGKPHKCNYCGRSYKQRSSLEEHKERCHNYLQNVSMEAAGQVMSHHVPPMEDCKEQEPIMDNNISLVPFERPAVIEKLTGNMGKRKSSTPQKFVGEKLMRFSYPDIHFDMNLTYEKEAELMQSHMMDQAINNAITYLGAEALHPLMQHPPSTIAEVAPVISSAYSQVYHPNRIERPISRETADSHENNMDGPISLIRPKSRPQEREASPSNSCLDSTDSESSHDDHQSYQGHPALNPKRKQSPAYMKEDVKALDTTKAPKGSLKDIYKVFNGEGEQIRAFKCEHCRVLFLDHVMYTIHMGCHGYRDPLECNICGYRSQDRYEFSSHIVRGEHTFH
IKZF2 (Helios), sequence (Q96SW2 whole entry): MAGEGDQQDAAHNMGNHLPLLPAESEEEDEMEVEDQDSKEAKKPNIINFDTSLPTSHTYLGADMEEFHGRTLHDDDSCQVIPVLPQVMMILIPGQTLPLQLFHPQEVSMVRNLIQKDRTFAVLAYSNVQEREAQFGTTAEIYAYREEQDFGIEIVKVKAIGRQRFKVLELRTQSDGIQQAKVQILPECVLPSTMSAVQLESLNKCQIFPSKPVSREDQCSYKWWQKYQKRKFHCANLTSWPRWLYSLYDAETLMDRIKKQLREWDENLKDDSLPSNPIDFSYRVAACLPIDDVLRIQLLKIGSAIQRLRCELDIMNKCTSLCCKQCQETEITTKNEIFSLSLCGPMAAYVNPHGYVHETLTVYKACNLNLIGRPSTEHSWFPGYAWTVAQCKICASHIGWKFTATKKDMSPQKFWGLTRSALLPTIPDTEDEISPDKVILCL
IKZF2 (Helios), sequence (Q16531 whole entry partner): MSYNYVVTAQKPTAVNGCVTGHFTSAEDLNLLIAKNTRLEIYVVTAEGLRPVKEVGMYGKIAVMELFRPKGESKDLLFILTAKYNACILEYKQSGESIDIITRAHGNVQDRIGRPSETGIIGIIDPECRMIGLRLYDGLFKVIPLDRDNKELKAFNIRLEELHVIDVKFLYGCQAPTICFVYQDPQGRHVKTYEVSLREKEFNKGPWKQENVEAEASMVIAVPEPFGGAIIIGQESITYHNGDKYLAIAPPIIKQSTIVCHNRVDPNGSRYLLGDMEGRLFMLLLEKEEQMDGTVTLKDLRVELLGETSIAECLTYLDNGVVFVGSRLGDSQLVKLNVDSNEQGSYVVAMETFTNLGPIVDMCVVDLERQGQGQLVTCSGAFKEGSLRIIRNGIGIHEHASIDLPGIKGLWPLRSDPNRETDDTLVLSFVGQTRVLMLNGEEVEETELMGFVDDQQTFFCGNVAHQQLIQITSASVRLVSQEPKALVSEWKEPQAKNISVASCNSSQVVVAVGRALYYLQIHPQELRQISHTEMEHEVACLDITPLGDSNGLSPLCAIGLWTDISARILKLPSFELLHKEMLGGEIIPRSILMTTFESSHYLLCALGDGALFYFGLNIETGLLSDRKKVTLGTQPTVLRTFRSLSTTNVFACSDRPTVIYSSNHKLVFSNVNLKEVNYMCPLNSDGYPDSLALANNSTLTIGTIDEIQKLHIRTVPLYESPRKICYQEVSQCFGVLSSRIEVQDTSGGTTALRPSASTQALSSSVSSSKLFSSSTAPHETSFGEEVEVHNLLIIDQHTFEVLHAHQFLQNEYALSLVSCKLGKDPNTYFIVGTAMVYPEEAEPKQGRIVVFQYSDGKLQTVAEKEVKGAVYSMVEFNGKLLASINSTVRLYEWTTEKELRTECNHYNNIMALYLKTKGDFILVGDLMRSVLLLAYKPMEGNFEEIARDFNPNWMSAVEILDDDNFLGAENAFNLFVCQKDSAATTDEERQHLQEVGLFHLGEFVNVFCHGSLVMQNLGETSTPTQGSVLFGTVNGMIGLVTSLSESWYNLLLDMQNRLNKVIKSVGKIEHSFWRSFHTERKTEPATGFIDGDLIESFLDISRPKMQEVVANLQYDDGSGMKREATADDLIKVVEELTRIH

Row | Dmax at 10 µM (24 h, read-out: IKZF2 % protein reduction at 10 μM, 24 h) | Structure (SMILES) | EC50 (read-out: IKZF2 EC50, Pro-label assay, 293GT cells, degradation)
1 | 65% | CN[C@H]1CCCC[C@@H]1N(C)c1ccc2c(c1)CN(C1CCC(=O)NC1=O)C2=O (mixture of isomers) [I-9, Racemic trans-3-(5-(methyl(-2-(methylamino)cyclohexyl)amino)-1-oxoisoindolin-2-yl)piperidine-2,6-dione HC(O)OH Salt] | 
2 |  | CC(C)CN[C@H]1CCCC[C@@H]1Nc1ccc2c(c1)CN(C1CCC(=O)NC1=O)C2=O (stereo partly drawn) [I-15, 3-(5-(((1S,2S)-2-(isobutylamino)cyclohexyl)amino)-1-oxoisoindolin-2-yl)piperidine-2,6-dione] | 0.94 µM
